According to paper PMC9103414 (Journal of pharmacological and toxicological methods, 2022):
Structures can show the parent of a compound that is named as a salt. Where two headings read alike, the source gives them in different places. Marks after values point to notes of the source that are not given here.

Key:
murine NPCs = conditions: ref Demir & Laywell, 2015; P. Xu, et al., 2017; cited from earlier work
hiPSC-neurons [1] = test: HCA of synapses; type: cell-based, human
hiPSC-neurons [2] = test: Calcium KIC assay; type: cell-based, human; conditions: each ARV at 10 μM, 7 days; for Number of active neurons with detectable increases in calcium fluorescence: six wells per condition, Fig. 5 (DMSO: 1034 cells); for Calcium transient activity compared to DMSO (traces): Fig. 5, Fig. S1; for Percent active hiPSC-neurons, reduction vs DMSO: Fig. 6D
hiPSC-neurons [3] = conditions: for Neuronal Viability, change vs DMSO / Neuronal Viability (percentage of live neuronal nuclei), reduction vs DMSO: Fig. 1B; for Total Neurite Length (per cm^2 image area), reduction vs DMSO: Fig. 1C; for Neuronal Viability, reduction vs DMSO: Fig. 2D
[4] = cited from earlier work; for Cmax: read-out: Plasma Cmax, ref Food and Drug Administration New Drug Applications for each antiretroviral; for Plasma concentrations reach steady state by day: daily dosage, ref Min, et al.
[5] = test system: primary embryonic rat neurons; conditions: ref Stern, et al., 2018, cited from earlier work; for Number of MAP2+ neurons: 10 μM
hNPCs [6] = test: hNPC viability; type: cell-based, human; conditions: Fig. 7A
hNPCs [7] = test: Microscopic Imaging of Epigenetic Landscapes; type: cell-based, human; conditions: for Samples classified correctly by discriminant analysis: H3K27me3/H3K27ac and H3K9me3/H3K4me1 confusion matrices, Fig. 7D, E
hiPSC-microglia = conditions: cited from earlier work
[8] = lower concentrations (0.1, 1 μM), 7 days
[9] = 25 μM (inhibiting myosin activity)

| Molecule | Synapses/Neurite Length, reduction vs DMSO (hiPSC-neurons [1]; 0.1 μM, 7 days, Fig. 3C) [%] | Synapse Density, reduction vs DMSO (hiPSC-neurons [1]; 1 μM, 7 days, Fig. 3B) [%] | Synapses/Neurite Length, reduction vs DMSO (hiPSC-neurons [1]; 1 μM, 7 days, Fig. 3C) | Synapse Density, reduction vs DMSO (hiPSC-neurons [1]; 10 μM, 7 days, Fig. 3B) [%] | Synapses/Neurite Length, reduction vs DMSO (hiPSC-neurons [1]; 10 μM, 7 days, Fig. 3C) | Synapse Density, percent difference between ARV treatment and DMSO control (hiPSC-neurons [1]; each ARV at 10 μM, 7 days) | Mean Peak Amplitude, percent difference between ARV treatment and DMSO control (hiPSC-neurons [2]) | Number of active neurons with detectable increases in calcium fluorescence (hiPSC-neurons [2]) [cells] | Total Neurite Length, percent difference between ARV treatment and DMSO control (hiPSC-neurons [3]; each ARV at 10 μM, 7 days) | Cmax [4] [µM] | Percent Active, percent difference between ARV treatment and DMSO control (hiPSC-neurons [2]) | Neuronal Viability (percentage of live neuronal nuclei), reduction vs DMSO (hiPSC-neurons [3]; 10 μM, 7 days) [%] | Total Neurite Length (per cm^2 image area), reduction vs DMSO (hiPSC-neurons [3]; 10 μM, 7 days) [%] | Neuronal Viability, reduction vs DMSO (hiPSC-neurons [3]; each ARV at 10 μM, 7 days) [%] | further results |
| --- | --- | --- | --- | --- | --- | --- | --- | --- | --- | --- | --- | --- | --- | --- | --- |
| Cc1cn([C@H]2C[C@H](N=[N+]=[N-])[C@@H](CO)O2)c(=O)[nH]c1=O [zidovidine] |  |  |  |  |  |  |  |  |  |  |  |  |  |  | Viability of murine NPCs (murine NPCs): reduce the viability |
| Nc1nc(=O)n([C@@H]2CS[C@H](CO)O2)cc1F [FTC, emtricitabine] | 20 | 20 | 20% | 30 | 30% | −10(NS) percent | −10(NS) percent | 1003 | −6(NS) percent | 7 |  |  |  |  | Neuronal Viability, change vs DMSO (hiPSC-neurons [3]; any tested concentration (0.1, 1, 10 μM), 7 days): did not observe changes |
| COc1cc2c(cc1Cc1cccc(Cl)c1F)c(=O)c(C(=O)O)cn2[C@H](CO)C(C)C [EVG, elvitegravir] | 25 |  | no effect | 75 |  | −90 ^*** percent | −55 ^** percent | 31 | −85 ^*** percent |  | −90 ^*** percent | 65 | 80 | 80 | Synapse Density (synapses per cm^2 imaging area), reduction vs DMSO (hiPSC-neurons [1]; 0.1 μM, 7 days, Fig. 3B): 20%; Synapses/Neurite Length, increase vs DMSO (hiPSC-neurons [1]; 10 μM, 7 days, Fig. 3C): 20%; Synapse Density, reduction vs DMSO (hiPSC-neurons [1]; each ARV at 10 μM, 7 days, Fig. 4C): 90%; Event Frequency, percent difference between ARV treatment and DMSO control (hiPSC-neurons [2]): −40 ^** percent; Calcium transient activity compared to DMSO (traces) (hiPSC-neurons [2]): virtually inactive; Percent active hiPSC-neurons, reduction vs DMSO (hiPSC-neurons [2]): 90%; Calcium transient event frequency, reduction vs DMSO (hiPSC-neurons [2]; Fig. 6E): 40%; Calcium transient mean peak amplitude, reduction vs DMSO (hiPSC-neurons [2]; Fig. 6F): 55%; Neurite Length per Neuron, lower than DMSO (hiPSC-neurons [3]; 10 μM, 7 days, Fig. 1D): 50%; Total Neurite Length, reduction vs DMSO (hiPSC-neurons [3]; each ARV at 10 μM, 7 days, Fig. 2E): 85%; Neuronal Viability, change vs DMSO (hiPSC-neurons [3]; [8]): did not observe changes; Number of MAP2+ neurons ([5]; four days): significantly reduced the number of MAP2+ neurons; Number of MAP2+ neurons ([5]; two days): not two days; Neurotoxicity ([5]; 0.1 and 1 μM): not neurotoxic |
| C[C@@H]1CCN(C(=O)CC#N)C[C@@H]1N(C)c1ncnc2[nH]ccc12 [tofacitinib] |  |  |  |  |  |  |  |  |  |  |  |  |  |  | hNPC viability, effect (hNPCs [6]; 1 μM): not affected |
| O=C(CCCCCCC(=O)Nc1ccccc1)NO [SAHA] |  |  |  |  |  |  |  |  |  |  |  |  |  |  | hNPC viability, reduction vs DMSO (hNPCs [6]; 3 μM): 45%; Samples classified correctly by discriminant analysis (hNPCs [7]; 3 μM): 100% |
| CCCc1cc(C)[nH]c(=O)c1CNC(=O)c1cc(-c2ccnc(N3CCN(C)CC3)c2)cc2c1cnn2C(C)C [GSK343] |  |  |  |  |  |  |  |  |  |  |  |  |  |  | hNPC viability, reduction vs DMSO (hNPCs [6]; 10 μM, three days): 50%; Samples classified correctly by discriminant analysis (hNPCs [7]; 10 μM): 100% |
| O=C1Nc2ccc(Cl)cc2[C@@](C#CC2CC2)(C(F)(F)F)O1 [efavirenz] |  |  |  |  |  |  |  |  |  |  |  |  |  |  | Inflammation in hiPSC-microglia (hiPSC-microglia): increased inflammation; Phagocytosis in hiPSC-microglia (hiPSC-microglia): reduced phagocytosis |
| C[C@@H]1CCO[C@H]2Cn3cc(C(=O)NCc4ccc(F)cc4F)c(=O)c(O)c3C(=O)N12 [DTG, dolutegravir] | 20 | 30 | 30% |  | no effect | −10(NS) percent | −35(NS) percent | 716 | −14(NS) percent | 8 | −30 ^* percent | 30 | 20 | 20 | Event Frequency, percent difference between ARV treatment and DMSO control (hiPSC-neurons [2]): −10(NS) percent; Calcium transient activity compared to DMSO (traces) (hiPSC-neurons [2]): less calcium transient activity compared to DMSO; Percent active hiPSC-neurons, reduction vs DMSO (hiPSC-neurons [2]): 30%; Neurite Length per Neuron, increase vs DMSO (hiPSC-neurons [3]; 10 μM, 7 days, Fig. 1D): 20%; Plasma concentrations reach steady state by day ([4]; healthy volunteers, 2010): ≤ 5 days; Plasma concentrations reach steady state by day ([4]; people with HIV, 2011): ≤ 7 days |
| para-nitroblebbistatin |  |  |  |  |  |  |  |  |  |  |  |  |  |  | Synapse Density, reduction vs DMSO (hiPSC-neurons [1]; 25 μM, 7 days, Fig. 3B): 30%; Synapses/Neurite Length, reduction vs DMSO (hiPSC-neurons [1]; 25 μM, 7 days, Fig. 3C): 20%; Synapse Density, increase vs DMSO (hiPSC-neurons [1]; 25 μM, one day, Fig. 4A): 20%; Neurite length, effect (hiPSC-neurons [3]; [9]): did not affect; Neuron viability, effect (hiPSC-neurons [3]; [9]): did not affect; Total Neurite Length, increase vs DMSO (hiPSC-neurons [3]; 25 μM, one day, Fig. 2B): 15% |
| CC(C)OC(=O)OCOP(=O)(CO[C@H](C)Cn1cnc2c(N)ncnc21)OCOC(=O)OC(C)C [TDF, tenofovir disoproxil fumarate] | 20 | 30 | 25% | 40 | 20% |  | +20(NS) percent | 729 |  | 0.6 | −10(NS) percent | 35 | 20 | 30 | hNPC viability, reduction vs DMSO (hNPCs [6]; 10 μM, three days): 30%; Effect on epigenetic landscape (H3K27me3/H3K27ac and H3K9me3/H3K4me1 MIEL analysis) (hNPCs [7]; 10 μM, three days, Fig. 7B–E): altered the epigenetic landscape; Neuronal Viability, change vs DMSO (hiPSC-neurons [3]; [8]): did not observe changes; Viability of murine NPCs (murine NPCs): reduce the viability |
